Reference: patent US20090227587A1, “Pyrimidines as inhibitors of phosphoinositide-3-kinases (PI3K)” (Warner-Lambert Company LLC, priority 2003, published 2009)

biological target: T1, p101/p110γ protein (PI3Kγ) (Homo sapiens, UniProt P48736); experiment: PI3Kγ in vitro kinase assay; type: biochemical; conditions: purified recombinant p101/p110γ with G protein β1/γ2 subunits, 20 μM ATP, PIP2 lipid micelles
T1 construct: HA; made in house; host or cells: Spodoptera frugiperda (Sf9) cells, baculovirus co-infection
T1 sequence (P48736 whole entry, species assumed): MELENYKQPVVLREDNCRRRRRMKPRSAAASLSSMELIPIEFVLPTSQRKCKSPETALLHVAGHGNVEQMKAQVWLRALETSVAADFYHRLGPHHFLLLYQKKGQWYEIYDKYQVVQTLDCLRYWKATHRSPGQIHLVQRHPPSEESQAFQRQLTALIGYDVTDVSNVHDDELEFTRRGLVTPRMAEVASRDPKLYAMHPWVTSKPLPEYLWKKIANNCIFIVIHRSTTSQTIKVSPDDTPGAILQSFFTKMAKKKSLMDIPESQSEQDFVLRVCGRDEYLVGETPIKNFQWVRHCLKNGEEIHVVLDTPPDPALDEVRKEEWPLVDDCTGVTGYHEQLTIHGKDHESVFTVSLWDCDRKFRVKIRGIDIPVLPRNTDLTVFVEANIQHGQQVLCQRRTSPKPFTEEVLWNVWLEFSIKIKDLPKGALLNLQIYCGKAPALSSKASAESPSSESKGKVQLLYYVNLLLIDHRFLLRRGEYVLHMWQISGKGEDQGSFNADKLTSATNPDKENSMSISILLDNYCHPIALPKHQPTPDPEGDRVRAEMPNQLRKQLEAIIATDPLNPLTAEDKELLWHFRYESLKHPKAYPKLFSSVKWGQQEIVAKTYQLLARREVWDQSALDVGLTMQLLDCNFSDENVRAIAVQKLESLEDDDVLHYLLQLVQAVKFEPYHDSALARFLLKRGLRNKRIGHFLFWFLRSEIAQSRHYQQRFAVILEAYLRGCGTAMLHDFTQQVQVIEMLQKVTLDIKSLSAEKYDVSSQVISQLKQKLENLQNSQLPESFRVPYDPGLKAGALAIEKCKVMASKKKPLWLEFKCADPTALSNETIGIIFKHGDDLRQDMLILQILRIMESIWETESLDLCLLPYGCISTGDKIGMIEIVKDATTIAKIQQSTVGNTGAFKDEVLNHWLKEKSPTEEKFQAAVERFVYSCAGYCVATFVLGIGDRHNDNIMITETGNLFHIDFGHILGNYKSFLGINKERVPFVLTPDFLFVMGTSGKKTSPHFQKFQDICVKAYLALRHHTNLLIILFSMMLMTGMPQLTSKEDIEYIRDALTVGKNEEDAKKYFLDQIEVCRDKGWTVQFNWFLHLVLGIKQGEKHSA
T1 sequence (Q8WYR1 whole entry partner, species assumed): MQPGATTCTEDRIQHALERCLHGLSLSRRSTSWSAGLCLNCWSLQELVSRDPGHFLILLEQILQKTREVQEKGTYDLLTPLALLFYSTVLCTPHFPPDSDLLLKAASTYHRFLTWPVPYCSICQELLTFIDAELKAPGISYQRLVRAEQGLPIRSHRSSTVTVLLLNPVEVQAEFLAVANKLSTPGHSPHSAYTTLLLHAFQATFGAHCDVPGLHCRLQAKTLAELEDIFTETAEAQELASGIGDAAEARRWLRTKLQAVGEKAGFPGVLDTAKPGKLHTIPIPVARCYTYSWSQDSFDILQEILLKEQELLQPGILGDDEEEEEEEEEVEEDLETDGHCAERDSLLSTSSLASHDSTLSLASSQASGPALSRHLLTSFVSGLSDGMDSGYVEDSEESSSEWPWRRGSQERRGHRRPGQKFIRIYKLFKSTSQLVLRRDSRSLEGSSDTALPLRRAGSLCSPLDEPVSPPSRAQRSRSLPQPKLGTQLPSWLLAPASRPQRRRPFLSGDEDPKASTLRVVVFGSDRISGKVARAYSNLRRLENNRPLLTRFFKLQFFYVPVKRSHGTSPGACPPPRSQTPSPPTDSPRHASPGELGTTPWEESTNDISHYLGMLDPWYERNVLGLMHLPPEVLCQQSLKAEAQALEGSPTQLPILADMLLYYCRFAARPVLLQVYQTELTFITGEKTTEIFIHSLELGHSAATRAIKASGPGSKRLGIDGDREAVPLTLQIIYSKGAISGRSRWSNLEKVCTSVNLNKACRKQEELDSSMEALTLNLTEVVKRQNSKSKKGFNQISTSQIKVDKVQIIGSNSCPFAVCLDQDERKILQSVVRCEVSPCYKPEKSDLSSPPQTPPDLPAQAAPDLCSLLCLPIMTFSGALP
Method: Spodtera frugiperda cells, grown in ESF921 media, were co-infected with baculovirus expressing a glu-tagged p101 and baculovirus expressing an HA-tagged p110γ, at a 3:1 ratio of p101 baculovirus to p110γ baculovirus. Sf9 cells were grown to 1×10^7 total cells/mL in 10 L bioreactors and harvested 48-72 hours post infection. Samples of infected cells were then tested for expression of p101/p110γ PI3 kinase by immunoprecipitation and Western Blot analysis methods (see below).
To purify PI3Kγ, 4 volumes of room temperature hypotonic lysis buffer (1 mM MgCl2, 1 mM DTT, 5 mM EGTA, 1 mM Pefabloc, 0.5 μM aprotinin, 5 μM leupeptin, 2 μM pepstatin, 5 μM E64, pH 8) per gram of cell paste, was poured onto frozen cell pellets with stirring, then lysed in a nitrogen “bomb” at 400 psi (599HC T316, Parr Instrument Co, Moline, Ill.). NaCl was added to 150 mM, and sodium cholate was added to 1% and mixed for another 45 minutes. The lysates were clarified by centrifugation for 25 minutes at 14,000 rpm. The lysates were then loaded over anti-glu-linked Protein-G Sepaharose beads (Covance Research Products, Richmond, Calif.) using 20 mL resin/50 g cell paste. The column was washed with 15 volumes of wash buffer (1 mM DTT, 0.2 mM EGTA, 1 mM Pefabloc, 0.5 μM aprotinin, 5 μM leupeptin, 2 μM pepstatin, 5 μM E64, 150 mM NaCl, 1% sodium cholate, pH 8). PI3Kγ was eluted with 6 column volumes of wash buffer that contain 100 μg/mL of a peptide that competes for binding of the glu tag. The column fractions with the eluted protein (determined by taking OD280 readings) were collected and dialyzed in 0.2 mM EGTA, 1 mM DTT, 1 mM Pefabloc, 5 μM leupeptin, 0.5% sodium cholate, 150 mM NaCl, and 50% glycerol, pH 8. The fractions were stored at −80° C. until further use.
Spodtera frugiperda cells were coinfected with baculovirus expressing a glu-tagged G protein β1 and baculovirus expressing a G protein […], at a 1:1 ratio of glu-tagged G protein […] baculovirus to G protein β2 baculovirus. Sf9 cells are grown in 10 L bioreactors and harvested 48-72 hours post infection. Samples of infected cells were tested for G protein β1/β2 expression by Western Blot analysis, as described below. Cell lysates were homogenized and loaded onto a column of glu-tagged beads as in Biological Example 1 and competed off the column with a glu peptide and processed as described in Biological Example 1.
The inhibitory properties of the compounds in Table 1 were assayed in an in vitro PI3K assay. In a 96-well polypropylene plate, each well was spotted with 2 μL of 50 times the desired final concentration of compound in DMSO. Purified recombinant p101/p110γ protein (0.03 μg; ˜2.7 nM) and G protein β1/γ2 subunits (0.09 μg; ˜57.7 nM) for each reaction was combined in the assay buffer (30 mM HEPES, 100 mM NaCl, 1 mM EGTA, and 1 mM DTT). ATP and [γ-^32P-ATP] (0.09 μCi) were added to this mixture so that the final ATP concentration in the reaction was 20 μM. Lipid micelles were formed by sonicating phosphatidylinositol-4,5-diphosphate (PIP2), phosphatidylethanolamine (PE), and Na-cholate in the assay buffer for 10 minutes, adding MgCl2 and incubating on ice for 20 minutes, for final concentrations of 25 μM PIP2, 300 μM PE, 0.02% Na-cholate, and 10 mM MgCl2 in the reaction. The reactions were started by adding equal volumes lipid and enzyme mixture in a total volume of 50 μL, allowed to run for 20 minutes at room temperature, and stopped with 100 μL 75 mM H3PO4. The lipid product was transferred to a glass fiber filter plate and washed with 75 mM H3PO4 several times. The presence of radioactive lipid product (PIP3) was measured by adding Wallac Optiphase mix to each well and counting in a Wallac 1450 Trilux plate reader (PerkinElmer Life Sciences Inc., Boston, Mass. 02118). The IC50 for each compound tested is reported in μM in the Tables above.

SMILES	IC50
O=C(Nc1nn[nH]n1)c1cnc(N2CCOCC2)nc1OC1CCCC1 [Example 2, 4-Cyclopentyloxy-2-morpholin-4-yl-pyrimidine-5-carboxylic acid (2H-tetrazol-5-yl)-amide]	1.54 µM
CC(C)Oc1nc(N2CCOCC2)ncc1C(=O)Nc1nn[nH]n1 [Example 3, 4-Isopropoxy-2-morpholin-4-yl-pyrimidine-5-carboxylic acid (2H-tetrazol-5-yl)-amide]	87.5 µM
O=C(Nc1nn[nH]n1)c1cnc(N2CCOCC2)nc1OC1CCCCC1 [Example 4, 4-Cyclohexyloxy-2-morpholin-4-yl-pyrimidine-5-carboxylic acid (2H-tetrazol-5-yl)-amide]	1.74 µM
O=C(Nc1nn[nH]n1)c1cnc(N2CCOCC2)nc1OC1CCCCCCC1 [Example 5, 4-Cyclooctyloxy-2-morpholin-4-yl-pyrimidine-5-carboxylic acid (2H-tetrazol-5-yl)-amide]	0.502 µM
O=C(Nc1nn[nH]n1)c1cnc(N2CCOCC2)nc1OCCC1CCCCC1 [Example 6, 4-(2-Cyclohexyl-ethoxy)-2-morpholin-4-yl-pyrimidine-5-carboxylic acid (2H-tetrazol-5-yl)-amide]	10.1 µM
O=C(Nc1nn[nH]n1)c1cnc(N2CCOCC2)nc1OCC1CCCCC1 [Example 7, 4-Cyclohexylmethoxy-2-morpholin-4-yl-pyrimidine-5-carboxylic acid (2H-tetrazol-5-yl)-amide]	1.83 µM
COCCOc1nc(N2CCOCC2)ncc1C(=O)Nc1nn[nH]n1 [Example 8, 4-(2-Methoxy-ethoxy)-Z-morpholin-4-yl-pyrimidine-5-carboxylic acid (2H-tetrazol-5-yl)-amide]	2.32 µM
CC1(C)CCCC(Oc2nc(N3CCOCC3)ncc2C(=O)Nc2nn[nH]n2)C1 (stereo not drawn) [Example 9, 4-(3,3-Dimethyl-cyclohexyloxy)-2-morpholin-4-yl-pyrimidine-5-carboxylic acid (2H-tetrazol-5-yl)-amide]	1.36 µM
O=C(Nc1nn[nH]n1)c1cnc(N2CCOCC2)nc1OC1CCOCC1 [Example 10, 2-Morpholin-4-yl-4-(tetrahydro-pyran-4-yloxy)-pyrimidine-5-carboxylic acid (2H-tetrazol-5-yl)-amide]	10.5 µM
O=C(Nc1nn[nH]n1)c1cnc(N2CCOCC2)nc1OC1C2CC3CC(C2)CC1C3 (stereo not drawn) [Example 11, 4-(Adamantan-2-yloxy)-2-morpholin-4-yl-pyrimidine-5-carboxylic acid (2H-tetrazol-5-yl)-amide]	0.485 µM
O=C(Nc1nn[nH]n1)c1cnc(N2CCOCC2)nc1OC1CC2CCC1C2 (stereo not drawn) [Example 12, 4-(Bicyclo[2.2.1]hept-2-yloxy)-2-morpholin-4-yl-pyrimidine-5-carboxylic acid (2H-tetrazol-5-yl)-amide]	0.845 µM
CC(C)(C)COc1nc(N2CCOCC2)ncc1C(=O)Nc1nn[nH]n1 [Example 13, 4-(2,2-Dimethyl-propoxy)-2-morpholin-4-yl-pyrimidine-5-carboxylic acid (2H-tetrazol-5-yl)-amide]	2.06 µM
CC(C)C(C)Oc1nc(N2CCOCC2)ncc1C(=O)Nc1nn[nH]n1 (stereo not drawn) [Example 14, 4-(1,2-Dimethyl-propoxy)-2-morpholin-4-yl-pyrimidine-5-carboxylic acid (2H-tetrazol-5-yl)-amide]	1.16 µM
CC1(COc2nc(N3CCOCC3)ncc2C(=O)Nc2nn[nH]n2)CC1 [Example 15, 4-(1-Methyl-cyclopropylmethoxy)-2-morpholin-4-yl-pyrimidine-5-carboxylic acid (2H-tetrazol-5-yl)-amide]	1.69 µM
CC1CC(C)CC(Oc2nc(N3CCOCC3)ncc2C(=O)Nc2nn[nH]n2)C1 (stereo not drawn) [Example 16, 4-(3,5-Dimethyl-cyclohexyloxy)-2-morpholin-4-yl-pyrimidine-5-carboxylic acid (2H-tetrazol-5-yl)-amide]	0.21 µM
CC(C)c1ccc(Oc2nc(N3CCOCC3)ncc2C(=O)Nc2nn[nH]n2)cc1 [Example 17, 4-(4-Isopropyl-phenoxy)-2-morpholin-4-yl-pyrimidine-5-carboxylic acid (2H-tetrazol-5-yl)-amide]	0.805 µM
O=C(Nc1nn[nH]n1)c1cnc(N2CCOCC2)nc1Oc1ccc(C2CCCCC2)cc1 [Example 18, 4-(4-Cyclohexyl-phenoxy)-2-morpholin-4-yl-pyrimidine-5-carboxylic acid (2H-tetrazol-5-yl)-amide]	0.154 µM
O=C(Nc1nnn[nH]1)c1cnc(N2CCOCC2)nc1NC1CCCC1 [Example 19, 4-Cyclopentylamino-2-morpholin-4-yl-pyrimidine-5-carboxylic acid (1H-tetrazol-5-yl)-amide]	32.7 µM
O=C(Nc1nnn[nH]1)c1cnc(N2CCOCC2)nc1NCc1ccccc1 [Example 20, 4-Benzylamino-2-morpholin-4-ylpyrimidine-5-carboxylic acid (1H-tetrazol-5-yl)-amide]	39.1 µM
O=C(Nc1nnn[nH]1)c1cnc(N2CCOCC2)nc1NC1CCCCC1 [Example 21, 4-Cyclohexylamino-2-morpholin-4-yl-pyrimidine-5-carboxylic acid (1H-tetrazol-5-yl)-amide]	28.6 µM
Cc1nc(N2CCOCC2)nc(OC2CCCCCC2)c1C(=O)Nc1nn[nH]n1 [Example 22, 4-Cycloheptyloxy-6-methyl-2-morpholin-4-yl-pyrimidine-5-carboxylic acid (2H-tetrazol-5-yl)-amide]	8.44 µM
